Like-named read-outs stand apart in the source and are kept apart here. Values belong to the compound of their own block, whether it stands above or below them.
How the values were obtained:
Type in all cases: biochemical
ACE2 = ACE2 (Homo sapiens, UniProt Q9BYF1); experiment: fluorescent ACE2 inhibitor screening kit
COX-2 [1] = target: T1, COX-2 (Homo sapiens, UniProt P35354); experiment: fluorescent COX-2 inhibitor screening kit
T1 sequence (P35354 18-604): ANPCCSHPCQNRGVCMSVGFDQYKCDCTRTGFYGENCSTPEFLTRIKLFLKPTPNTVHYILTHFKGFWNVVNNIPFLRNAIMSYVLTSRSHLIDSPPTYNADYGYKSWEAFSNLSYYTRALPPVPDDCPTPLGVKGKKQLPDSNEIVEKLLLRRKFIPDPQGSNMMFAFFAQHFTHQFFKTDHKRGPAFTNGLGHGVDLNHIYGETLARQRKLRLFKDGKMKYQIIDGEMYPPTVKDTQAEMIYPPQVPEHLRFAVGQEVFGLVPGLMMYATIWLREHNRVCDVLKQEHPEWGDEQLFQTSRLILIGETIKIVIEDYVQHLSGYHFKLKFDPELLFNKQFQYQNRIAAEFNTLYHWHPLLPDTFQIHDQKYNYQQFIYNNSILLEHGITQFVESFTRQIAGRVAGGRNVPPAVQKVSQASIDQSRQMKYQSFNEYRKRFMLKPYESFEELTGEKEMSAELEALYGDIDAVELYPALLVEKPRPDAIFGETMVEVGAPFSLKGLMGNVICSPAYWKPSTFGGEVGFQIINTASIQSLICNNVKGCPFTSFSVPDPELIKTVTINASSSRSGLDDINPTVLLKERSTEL

COX-2 [2] = target: T1, COX-2; experiment: fluorescent COX-2 inhibitor screening kit; remark: listed apart in the source

Chain of ACE2 (Q9BYF1 18-805): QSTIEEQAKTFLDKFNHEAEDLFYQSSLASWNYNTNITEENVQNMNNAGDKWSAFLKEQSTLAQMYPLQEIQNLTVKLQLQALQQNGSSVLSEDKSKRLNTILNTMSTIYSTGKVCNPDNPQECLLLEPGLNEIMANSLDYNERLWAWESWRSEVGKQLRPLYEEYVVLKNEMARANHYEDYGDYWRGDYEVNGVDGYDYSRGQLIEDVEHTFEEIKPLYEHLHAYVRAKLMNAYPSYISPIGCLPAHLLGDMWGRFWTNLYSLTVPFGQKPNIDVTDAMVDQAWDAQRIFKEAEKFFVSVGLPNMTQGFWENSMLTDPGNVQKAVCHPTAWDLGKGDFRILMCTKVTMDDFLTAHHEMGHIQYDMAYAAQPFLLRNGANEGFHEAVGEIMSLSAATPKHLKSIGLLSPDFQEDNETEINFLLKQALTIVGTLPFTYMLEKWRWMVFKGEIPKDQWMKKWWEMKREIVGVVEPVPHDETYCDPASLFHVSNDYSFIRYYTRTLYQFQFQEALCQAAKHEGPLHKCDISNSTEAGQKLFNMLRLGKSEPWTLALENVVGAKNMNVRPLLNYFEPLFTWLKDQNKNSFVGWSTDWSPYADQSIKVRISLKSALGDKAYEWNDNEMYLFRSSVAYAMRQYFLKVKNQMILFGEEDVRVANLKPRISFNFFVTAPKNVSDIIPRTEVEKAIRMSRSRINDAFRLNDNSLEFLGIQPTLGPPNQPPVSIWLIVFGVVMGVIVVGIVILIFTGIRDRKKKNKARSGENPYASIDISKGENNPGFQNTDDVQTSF

- IC50 (ACE2): 135 ± 6.54 µM
SMILES: O=c1c(O[C@@H]2O[C@H](CO)[C@@H](O)[C@H](O)[C@H]2O)c(-c2ccc(O)c(O)c2)oc2cc(O)cc(O)c12 [compound 5, Quercetin 3-O-glucoside]

- IC50 (COX-2 [1]): 0.36 ± 0.02 µM
SMILES: O=c1c(O)c(-c2ccc(O)cc2)oc2cc(O)cc(O)c12 [compound 11, Kaempferol]

SMILES: COc1cc([C@@H]2c3cc4c(cc3[C@H](O)[C@H]3COC(=O)[C@H]23)OCO4)cc(OC)c1OC [compound 12, Podophyllotoxin]
- IC50 (COX-2 [2]): 10.5 ± 0.61 µM

Reference: PMC9392260 (Journal of Inflammation Research, 2022)
